# Results taken from US10239844B2, “Disubstituted triazole analogs” (BioVentures, LLC, priority 2014, dated 2019).
# Legend:
# Format in all cases: cell-based, human
# CCRF-CEM = assay: NCI 60 panel five-dose growth inhibition, Leukemia
# HL-60(T13) = assay: NCI 60 panel five-dose growth inhibition, Leukemia; settings: Homo sapiens
# MOLT-4 = assay: NCI 60 panel five-dose growth inhibition, Leukemia; settings: MOLT-4, Leukemia
# RPMI-8226 = assay: NCI 60 panel five-dose growth inhibition, Leukemia; settings: RPMI-8226, Leukemia
# A549/ATCC = assay: NCI 60 panel five-dose growth inhibition, Non-Small Cell Lung Cancer
# HOP-92 = assay: as above; settings: HOP-92, Non-Small Cell Lung Cancer
# COLO 205 = assay: NCI 60 panel five-dose growth inhibition, Colon Cancer; settings: COLO 205, Colon Cancer
# HCC-2998 = assay: as above; settings: HCC-2998, Colon Cancer
# HCT-116 = assay: as above; settings: HCT-116, Colon Cancer
# 1-ICT-15 = assay: as above; settings: 1-ICT-15, Colon Cancer
# HT29 = assay: as above
# KM12 = assay: as above
# SW-620 = assay: as above; settings: SW-620, Colon Cancer
# SF-268 = assay: NCI 60 panel five-dose growth inhibition, CNS Cancer; settings: SF-268, CNS Cancer
# SF-295 = assay: as above; settings: SF-295, CNS Cancer
# SF-539 = assay: as above
# SNB-19 = assay: as above; settings: SNB-19, CNS Cancer
# SNB-75 = assay: as above; settings: Homo sapiens; SNB-75, CNS Cancer
# U251 = assay: as above
# M14 = assay: NCI 60 panel five-dose growth inhibition, Melanoma
# MDA-MB-435 = assay: NCI 60 panel five-dose growth inhibition, Melanoma
# SK-MEL-2 = assay: NCI 60 panel five-dose growth inhibition, Melanoma; settings: SK-MEL-2, Melanoma
# SK-MEL-28 = assay: NCI 60 panel five-dose growth inhibition, Melanoma; settings: SK-MEL-28, Melanoma
# IGROV1 = assay: NCI 60 panel five-dose growth inhibition, Ovarian Cancer
# OVCA R-3 = assay: as above
# OVCAR-4 = assay: as above; settings: OVCAR-4, Ovarian Cancer
# SK-OV-3 = assay: as above; settings: SK-OV-3, Ovarian Cancer
# 786-0 = assay: NCI 60 panel five-dose growth inhibition, Renal Cancer; settings: 786-0, Renal Cancer
# ACHN = assay: as above
# CAKI-1 = assay: as above; settings: CAKI-1, Renal Cancer
# U0-31 = assay: as above; settings: U0-31, Renal Cancer
# PC-3 = assay: NCI 60 panel five-dose growth inhibition, Prostate Cancer; settings: PC-3, Prostate Cancer
# DU-145 = assay: as above; settings: Homo sapiens; DU-145, Prostate Cancer
# MCF7 = assay: NCI 60 panel five-dose growth inhibition, Breast Cancer
# MDA-MB-231/ATCC = assay: as above
# MDA-MB-468 = assay: as above; settings: MDA-MB-468, Breast Cancer
compound,measurement,setting,value
"COc1ccc(-c2n[nH]nc2-c2cc(OC)cc(OC)c2)cc1 [Example 5, 4-(3,5-dimethoxyphenyl)-5-(4-methoxyphenyl)-2H-1,2,3-triazole]",TGI,CCRF-CEM,46300 nM
same,GI50,CCRF-CEM; Homo sapiens,< 10 nM
same,GI50,HL-60(T13),< 10 nM
same,GI50,MOLT-4; Homo sapiens,12 nM
same,TGI,MOLT-4,16100 nM
same,GI50,RPMI-8226; Homo sapiens,< 10 nM
same,TGI,RPMI-8226,24600 nM
same,TGI,A549/ATCC,73400 nM
same,GI50,A549/ATCC; Homo sapiens,< 10 nM
same,TGI,HOP-92,80 nM
same,GI50,HOP-92; Homo sapiens,< 10 nM
same,TGI,COLO 205,120 nM
same,GI50,COLO 205; Homo sapiens,29.2 nM
same,TGI,HCC-2998,22400 nM
same,GI50,HCC-2998; Homo sapiens,24.9 nM
same,TGI,HCT-116,>100000 nM
same,GI50,HCT-116; Homo sapiens,< 10 nM
same,TGI,1-ICT-15,>100000 nM
same,GI50,1-ICT-15; Homo sapiens,< 10 nM
same,TGI,HT29,10800 nM
same,GI50,"HT29; Homo sapiens, HT-29",< 10 nM
same,TGI,KM12,50 nM
same,GI50,KM12; Homo sapiens,< 10 nM
same,GI50,SW-620; Homo sapiens,< 10 nM
same,TGI,SW-620,>100000 nM
same,GI50,SF-268; Homo sapiens,< 10 nM
same,TGI,SF-268,90000 nM
same,GI50,SF-295; Homo sapiens,< 10 nM
same,TGI,SF-295,27500 nM
same,GI50,"SF-539; Homo sapiens, SF-539, CNS Cancer",< 10 nM
same,TGI,"SF-539; SF-539, CNS Cancer",<10 nM
same,TGI,"SF-539; SF-539, as stated in text",less than 10 nM
same,GI50,SNB-19; Homo sapiens,< 10 nM
same,TGI,SNB-19,>100000 nM
same,GI50,SNB-75,< 10 nM
same,TGI,U251,16500 nM
same,GI50,"U251; Homo sapiens, U-251",< 10 nM
same,TGI,M14,23000 nM
same,GI50,M14; Homo sapiens,< 10 nM
same,GI50,"MDA-MB-435; Homo sapiens, MDA-MB-435, Melanoma",< 10 nM
same,TGI,"MDA-MB-435; MDA-MB-435, Melanoma",<10 nM
same,TGI,"MDA-MB-435; MDA-MB-435, as stated in text",less than 10 nM
same,GI50,SK-MEL-2; Homo sapiens,< 10 nM
same,TGI,SK-MEL-2,30500 nM
same,TGI,SK-MEL-28,60700 nM
same,TGI,IGROV1,21500 nM
same,GI50,"IGROV1; Homo sapiens, IGROV-1",< 10 nM
same,GI50,"OVCA R-3; Homo sapiens, OVCAR-3, OVCA R-3, Ovarian Cancer",< 10 nM
same,TGI,"OVCA R-3; OVCA R-3, Ovarian Cancer",<10 nM
same,TGI,"OVCA R-3; OVCAR-3, as stated in text",less than 10 nM
same,GI50,OVCAR-4; Homo sapiens,< 10 nM
same,TGI,OVCAR-4,>100000 nM
same,GI50,SK-OV-3; Homo sapiens,< 10 nM
same,TGI,SK-OV-3,40300 nM
same,TGI,786-0,19400 nM
same,GI50,786-0; Homo sapiens,< 10 nM
same,TGI,ACHN,62500 nM
same,GI50,ACHN; Homo sapiens,< 10 nM
same,TGI,CAKI-1,>100000 nM
same,GI50,CAKI-1; Homo sapiens,< 10 nM
same,GI50,U0-31; Homo sapiens,< 10 nM
same,TGI,U0-31,25100 nM
same,GI50,PC-3; Homo sapiens,< 10 nM
same,TGI,PC-3,35200 nM
same,GI50,DU-145,< 10 nM
same,TGI,MCF7,>100000 nM
same,GI50,MCF7; Homo sapiens,< 10 nM
same,TGI,MDA-MB-231/ATCC,>100000 nM
same,GI50,MDA-MB-231/ATCC; Homo sapiens,< 10 nM
same,GI50,MDA-MB-468; Homo sapiens,< 10 nM
same,TGI,MDA-MB-468,22400 nM
